# Measured values: the Kinase Knowledgebase extract (Sharma et al. 2016)
# Where “and” joins values, the source holds several entries; their conditions need not be identical. Identical values can stand only once.
# Target: PIK3CG (human) (UniProt P48736)
# Assay: Assessment of PIK3CG Kinase Activity
# Conditions: not given
# PIK3CG (human), sequence (P48736 whole entry, looked up): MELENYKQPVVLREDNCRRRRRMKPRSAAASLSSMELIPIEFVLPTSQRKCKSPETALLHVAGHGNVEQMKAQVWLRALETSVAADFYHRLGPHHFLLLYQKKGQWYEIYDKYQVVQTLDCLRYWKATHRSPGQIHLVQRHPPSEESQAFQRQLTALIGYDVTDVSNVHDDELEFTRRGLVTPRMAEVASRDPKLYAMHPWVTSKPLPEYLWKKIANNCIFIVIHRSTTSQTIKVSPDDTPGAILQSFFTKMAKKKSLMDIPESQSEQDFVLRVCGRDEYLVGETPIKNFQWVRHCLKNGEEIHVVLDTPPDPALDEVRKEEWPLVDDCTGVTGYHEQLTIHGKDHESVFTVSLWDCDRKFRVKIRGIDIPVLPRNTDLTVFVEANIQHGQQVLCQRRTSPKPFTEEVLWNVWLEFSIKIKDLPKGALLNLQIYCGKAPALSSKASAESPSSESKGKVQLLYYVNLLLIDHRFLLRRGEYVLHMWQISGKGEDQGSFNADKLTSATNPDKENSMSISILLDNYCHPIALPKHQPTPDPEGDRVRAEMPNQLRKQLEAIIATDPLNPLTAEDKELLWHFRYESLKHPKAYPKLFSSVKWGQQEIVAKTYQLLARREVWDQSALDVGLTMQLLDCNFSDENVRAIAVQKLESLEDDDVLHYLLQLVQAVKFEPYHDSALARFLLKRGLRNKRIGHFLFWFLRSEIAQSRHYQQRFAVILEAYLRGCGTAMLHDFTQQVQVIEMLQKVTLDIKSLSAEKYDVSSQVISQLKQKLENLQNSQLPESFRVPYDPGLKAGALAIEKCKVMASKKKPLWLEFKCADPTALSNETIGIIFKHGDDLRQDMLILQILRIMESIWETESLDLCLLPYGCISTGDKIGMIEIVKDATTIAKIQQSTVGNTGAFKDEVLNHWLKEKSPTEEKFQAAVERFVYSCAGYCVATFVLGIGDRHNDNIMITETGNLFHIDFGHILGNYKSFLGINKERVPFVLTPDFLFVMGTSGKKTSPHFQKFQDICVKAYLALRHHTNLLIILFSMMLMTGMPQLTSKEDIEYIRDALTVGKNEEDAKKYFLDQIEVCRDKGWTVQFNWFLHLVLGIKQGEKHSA
row,IC50 [nM],SMILES
1,> 20000,CC(=O)Nc1nc2ccc(-c3cccc(-c4nc(C)no4)c3)cn2n1
2,7.94,Nc1nc2ccc(-c3cncc(NS(=O)(=O)c4cccc5ccccc45)c3)cn2n1

# Target: ROCK2 (human) (UniProt O75116)
# Assay: Assessment of ROCK2 Kinase Activity
# Conditions: not given
row,SMILES,IC50 [nM]
1,CCC(C)=O.c1n[nH]cc1-c1cnc2ccc(N3CCCNCC3)nn12,6700
2,CC1CN(c2ccnc(N)n2)c2ccc(F)cc21 (stereo not drawn),200
3,CC1CN(c2ccnc(N)n2)c2ccc(Cl)cc21 (stereo not drawn),500
4,CC1CN(c2ccnc(N)n2)c2ccc([N+](=O)[O-])cc21 (stereo not drawn),400

# More lines, now with the values ahead:
row,IC50 [nM],SMILES
1,60,C[C@@H](NC(=O)c1cccc2c1ccn2-c1ccnc(N)n1)c1ccccc1
2,2,N#Cc1c[nH]c2nccc(Oc3ccc(Nc4cc(C(F)(F)F)nc(N)n4)cc3F)c12
3,4,Nc1nc(Nc2ccc(Oc3ccnc4[nH]cc(Cl)c34)c(F)c2)cc(C(F)(F)F)n1
4,71000,Clc1cnc2ccc(NCCCN3CCOCC3)nn12
5,70,COc1cccc(CNC(=O)c2cccc3c2ccn3-c2ccnc(N)n2)c1

# Target: CDK2 (human) (UniProt P24941)
# Assay: Cell-Based Assay
# Conditions: a 549
row,IC50 [nM],SMILES
1,6100,C[C@@H](Nc1nc(N[C@H]2CC[C@H](N)CC2)nc2c1ncn2C1CCCC1)c1ccccc1

# Same assay, conditions: a2780
row,IC50 [nM],SMILES
1,> 20000,O=C(Cc1ccc(-c2ccc(C(=O)O)cc2)cc1)Nc1cc(C2CC2)[nH]n1
2,> 20000,COc1cccc(CC(=O)Nc2cc(C3CC3)[nH]n2)c1

# Same assay, conditions: dms-114
row,IC50 [nM],SMILES
1,6600,C[C@@H](Nc1nc(N[C@H]2CC[C@H](N)CC2)nc2c1ncn2C1CCCC1)c1ccccc1

# Same assay, conditions: du-145
row,IC50 [nM],SMILES
1,5600,C[C@@H](Nc1nc(N[C@H]2CC[C@H](N)CC2)nc2c1ncn2C1CCCC1)c1ccccc1

# Same assay, conditions: hela
row,IC50 [nM],SMILES
1,3000,O=C1NCCc2c1[nH]c1ccc(Br)cc21

# Same assay, conditions: ht-29
row,IC50 [nM],SMILES
1,5700,C[C@@H](Nc1nc(N[C@H]2CC[C@H](N)CC2)nc2c1ncn2C1CCCC1)c1ccccc1

# Same assay, conditions: mcf-7
row,IC50 [nM],SMILES
1,260,NS(=O)(=O)c1ccc(Nc2nccc(-c3cnc4ccccn34)n2)cc1
2,> 5000,COCCN(C)S(=O)(=O)c1ccc(Nc2nccc(-c3cnc4cccnn34)n2)cc1
3,3300,C[C@@H](Nc1nc(N[C@H]2CC[C@H](N)CC2)nc2c1ncn2C1CCCC1)c1ccccc1
4,430,CN(C)CCCNS(=O)(=O)c1ccc(Nc2nccc(-c3cnc4cccnn34)n2)cc1
5,230,COCCNS(=O)(=O)c1ccc(Nc2nccc(-c3c(C)nc4cccnn34)n2)cc1

# Same assay, conditions: mda-mb-231
row,IC50 [nM],SMILES
1,5200,C[C@@H](Nc1nc(N[C@H]2CC[C@H](N)CC2)nc2c1ncn2C1CCCC1)c1ccccc1

# Same assay, conditions: pc-3
row,IC50 [nM],SMILES
1,3900,C[C@@H](Nc1nc(N[C@H]2CC[C@H](N)CC2)nc2c1ncn2C1CCCC1)c1ccccc1

# Same assay, conditions: rko
row,IC50 [nM],SMILES
1,100,NCCSc1cc(-c2ccc[nH]2)c2c3c(ccc(F)c13)NC2=O

# Target: PIK3CD (Human) (UniProt O00329)
# Assay: Assessment of PIK3CD Kinase Activity
# Conditions: not given
SMILES,IC50 [nM],Ki
Cc1c(N2CCN(C(=O)N(C)C)CC2)nc2cc(F)cc(F)c2c1Nc1cncc(N2CCOCC2)c1C(=O)N(C)C,,81.6 nM
Cc1c(-c2ccccc2[S+](C)[O-])nc2cc(F)cc(F)c2c1Nc1cncc(N2CCOCC2)c1 (stereo not drawn),,3.89 nM
Cc1c(-c2ccccc2[S+](C)[O-])nc2cc(F)cc(F)c2c1Nc1cc(N2CCOCC2)cnc1N1CCOCC1 (stereo not drawn),,51 nM
CC(Nc1ncnc(N)c1C#N)c1nc2ccc(F)cc2c(C(=O)N(C)C)c1-c1ccccn1 (stereo not drawn),,7.77 nM
C[C@H](Nc1ncnc(N)c1C#N)c1nc2ccc(F)cc2c(C#N)c1-c1ccccc1,,2.76 nM and 1.33 nM
CC(Nc1ncnc(N)c1C#N)c1nc2ccc(F)cc2c([S+]([O-])CCO)c1-c1ccccc1 (stereo not drawn),,1.8 nM and 2.48 nM

# Other lines, results leading:
IC50 [nM],Ki,SMILES
≤ 50,,Cc1ncc2c(Cl)cc(C(C)Nc3ncnc4[nH]cnc34)c(-c3cccc(F)c3)n12 (stereo not drawn)
,7.16 nM,C[C@H](Nc1ncnc(N)c1C(N)=O)c1nc2ccc(F)cc2c(C(=O)O)c1-c1ccccc1
> 100000,,CC(=O)Nc1nc2ccc(-c3cccc(-c4nc(C)no4)c3)cn2n1
500 to 990,,CCc1cccn2c(-c3cccc(F)c3)c(C(C)Nc3ncnc4[nH]cnc34)nc12 (stereo not drawn)
126,,Nc1nc2ccc(-c3cncc(NS(=O)(=O)c4cccc5ccccc45)c3)cn2n1
≤ 50,,CC(Nc1ncnc2[nH]cnc12)c1cc(Cl)c2cncn2c1-c1cccc(F)c1 (stereo not drawn)
,74.2 nM,C[C@H](Nc1ncnc(N)c1C#N)c1nc2ccc(F)cc2c(C(=O)O)c1-c1ccccc1

# Target: EGFR (UniProt P00533)
# Sequence (P00533 whole entry, looked up): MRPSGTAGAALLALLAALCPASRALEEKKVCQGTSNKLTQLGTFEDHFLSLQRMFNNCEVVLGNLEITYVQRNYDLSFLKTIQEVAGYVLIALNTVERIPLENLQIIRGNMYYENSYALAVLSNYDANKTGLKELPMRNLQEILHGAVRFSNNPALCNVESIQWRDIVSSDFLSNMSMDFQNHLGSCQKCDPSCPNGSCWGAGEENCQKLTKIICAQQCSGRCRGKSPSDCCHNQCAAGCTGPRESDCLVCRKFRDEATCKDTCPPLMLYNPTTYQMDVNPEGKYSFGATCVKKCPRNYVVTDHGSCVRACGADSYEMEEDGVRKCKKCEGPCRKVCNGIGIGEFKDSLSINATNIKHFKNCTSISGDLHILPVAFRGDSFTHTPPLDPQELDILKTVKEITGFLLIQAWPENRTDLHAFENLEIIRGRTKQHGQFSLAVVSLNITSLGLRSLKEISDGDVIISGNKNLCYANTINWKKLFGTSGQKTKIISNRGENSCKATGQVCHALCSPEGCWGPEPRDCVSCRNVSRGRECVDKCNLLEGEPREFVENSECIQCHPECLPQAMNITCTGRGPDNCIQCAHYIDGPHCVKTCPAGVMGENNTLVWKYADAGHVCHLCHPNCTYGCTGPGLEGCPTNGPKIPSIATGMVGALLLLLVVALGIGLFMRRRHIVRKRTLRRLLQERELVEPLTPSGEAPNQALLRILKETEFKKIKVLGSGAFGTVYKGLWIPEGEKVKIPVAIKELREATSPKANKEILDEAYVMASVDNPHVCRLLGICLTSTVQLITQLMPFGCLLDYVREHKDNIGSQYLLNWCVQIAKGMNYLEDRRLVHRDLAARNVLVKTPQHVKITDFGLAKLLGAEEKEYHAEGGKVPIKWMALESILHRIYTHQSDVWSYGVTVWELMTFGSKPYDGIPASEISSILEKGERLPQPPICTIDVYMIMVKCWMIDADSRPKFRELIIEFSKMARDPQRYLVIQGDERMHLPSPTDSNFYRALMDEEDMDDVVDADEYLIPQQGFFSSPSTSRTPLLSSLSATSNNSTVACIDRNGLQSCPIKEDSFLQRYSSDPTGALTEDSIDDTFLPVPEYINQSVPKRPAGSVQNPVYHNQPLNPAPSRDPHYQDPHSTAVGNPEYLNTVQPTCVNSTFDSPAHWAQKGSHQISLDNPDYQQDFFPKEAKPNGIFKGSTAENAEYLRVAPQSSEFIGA
# Assay: not given
# Conditions: not given
row,IC50 [nM],SMILES
1,170000,CC1=CCC[C@H]2[C@](C)(CC3=C(O)C(=O)C=C(N[C@@H](CO)C(=O)O)C3=O)[C@@H](C)CC[C@]12C
2,> 400000,CC1=CCC[C@H]2[C@](C)(CC3=C(O)C(=O)C=C(N[C@H](C(=O)O)[C@@H](C)O)C3=O)[C@@H](C)CC[C@]12C
3,200000,CC1=CCC[C@H]2[C@](C)(CC3=C(O)C(=O)C=C(N[C@@H](C(=O)O)C(C)C)C3=O)[C@@H](C)CC[C@]12C
4,> 400000,CC1=CCC[C@H]2[C@](C)(CC3=C(O)C(=O)C=C(N[C@@H](C(=O)O)[C@@H](C)O)C3=O)[C@@H](C)CC[C@]12C

# Target: MAPK14 (murine)
# Assay: Inhibition of MAPK14 Kinase Activity
# Conditions: not given
row,SMILES,IC50 [nM]
1,COc1ccc(C(=O)N2CCCC2)cc1-c1c(=O)ccn2nc(Oc3ccc(F)cc3F)ccc12,22
2,COc1ccc(CCN2CCN(C)CC2)cc1-c1n[nH]c2nc(Nc3ccc(F)cc3F)ncc12,14
3,O=c1ccn2cc(Cc3ccc(F)cc3F)ccc2c1-c1c(F)cccc1F,93
4,O=c1ccn2cc(Sc3ccc(F)cc3F)ccc2c1-c1c(F)cccc1F,320

# Further lines, results first:
row,IC50 [nM],SMILES
1,11,COc1ccc(CCN(C)C)cc1-c1n[nH]c2nc(Nc3ccc(F)cc3F)ncc12
2,5800,Fc1ccc(Nc2ccc3c(-c4ccccc4Cl)ncnc3n2)c(F)c1
3,14,Cc1cc(OCCCN2CCOCC2)cc(C)c1N1C(=O)NCc2cc(NS(=O)(=O)c3ccc(F)c(Cl)c3)ccc21
4,100,O=C1NCc2cc(NS(=O)(=O)c3cc(Cl)ccc3Cl)ccc2N1c1c(Cl)cccc1Cl
5,710,O=c1ccn2nc(NCc3ccc(F)cc3F)ccc2c1-c1c(F)cccc1F
6,59,CCc1ccc(C(=O)N2CCCC2)cc1-c1c(=O)ccn2nc(Oc3ccc(F)cc3F)ccc12

# Target: MAPK14 (UniProt Q16539)
# Sequence (Q16539 whole entry, looked up): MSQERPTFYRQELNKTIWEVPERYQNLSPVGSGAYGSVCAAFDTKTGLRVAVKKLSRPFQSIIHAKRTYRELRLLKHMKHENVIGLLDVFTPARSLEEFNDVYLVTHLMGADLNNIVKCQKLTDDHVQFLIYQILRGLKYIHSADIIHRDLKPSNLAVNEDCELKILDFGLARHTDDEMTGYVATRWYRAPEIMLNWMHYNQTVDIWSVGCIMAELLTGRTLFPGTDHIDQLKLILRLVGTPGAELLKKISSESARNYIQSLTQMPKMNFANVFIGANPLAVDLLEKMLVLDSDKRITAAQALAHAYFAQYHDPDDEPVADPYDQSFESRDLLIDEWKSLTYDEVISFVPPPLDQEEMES
# Assay: p38 Inhibition
# Conditions: not given
row,SMILES,IC50 [nM]
1,Cc1cc(-c2c(-c3ccc(F)cc3)ncn2CCCN2CCOCC2)cc(C)n1,> 17000
2,Cc1cc(-c2c(-c3ccc(F)cc3)ncn2CCCN2CCOCC2)nc(N)n1,> 17000
3,O=c1c(-c2ccncc2)c(-c2ccc(F)cc2)[nH]n1-c1ccc(Cl)cc1,35

# The next lines start with the values.
row,IC50 [nM],SMILES
1,> 30000,O=C(CNS(=O)(=O)c1ccc(CNC(=O)c2ccc(Cl)cc2)s1)Nc1cccc(S(=O)(=O)C(F)(F)F)c1
2,> 30000,O=C(CCCNc1ncc(C(F)(F)F)cc1Cl)NNS(=O)(=O)c1ccc(CNC(=O)c2cccc([N+](=O)[O-])c2)s1
3,> 30000,O=C(CCCNc1ncc(C(F)(F)F)cc1Cl)NNS(=O)(=O)c1ccc(CNC(=O)c2cccc(O)c2)s1

# Same assay, conditions: concentration not given here
row,inhibition [%],SMILES
1,43,O=c1c(-c2ccc(F)cc2)c(-c2ccncc2)[nH]n1-c1ccc(Cl)cc1
2,0,Cc1[nH]c(=O)c2c(ccc3nc(Nc4c(Cl)cccc4Cl)[nH]c32)c1C

# Target: PIK3CB;PIK3CG;PIK3CD;PIK3CA (human) (UniProt P48736)
# Assay: Inhibition of PIK3 Kinase Activity
# Conditions: not given
row,SMILES,IC50 [nM]
1,O=C(C1COCCN1)N1CC=C(c2cc(N3CCOCC3)nc(-c3cccc(CO)c3)n2)CC1 (stereo not drawn),1000
2,Cn1ccnc1C(=O)N1CCN(c2cc(N3CCOCC3)nc(-c3cccc(CO)c3)n2)CC1,500
3,O=C(C1CNCCO1)N1CCN(c2cc(N3CCOCC3)nc(-c3cccc(CO)c3)n2)CC1 (stereo not drawn),1000
4,CC(C)C(=O)N1CC=C(c2cc(N3CCOCC3)nc(-c3cccc(CO)c3)n2)CC1,1000
5,O=C(N1CC=C(c2cc(N3CCOCC3)nc(-c3cccc(CO)c3)n2)CC1)N1CCNCC1,500
6,CC(=O)N1CCN(c2cc(N3CCOCC3)nc(-c3cccc(CO)c3)n2)CC1,300
7,O=C(C1CCN(c2cc(N3CCOCC3)nc(-c3cccc(CO)c3)n2)CC1)N1CCOCC1,1500
8,O=C(NC1CCNCC1)C1CCN(c2cc(N3CCOCC3)nc(-c3cccc(CO)c3)n2)CC1,1000

# The remaining lines, values ahead:
row,IC50 [nM],SMILES
1,500,CS(=O)(=O)N1CC=C(c2cc(N3CCOCC3)nc(-c3cccc(CO)c3)n2)CC1
2,500,O=C(CCc1cccnc1)N1CCN(c2cc(N3CCOCC3)nc(-c3cccc(CO)c3)n2)CC1
3,1000,O=C(NCc1ccncc1)C1CCN(c2cc(N3CCOCC3)nc(-c3cccc(CO)c3)n2)CC1

# Target: PIK3CA (human) (UniProt P42336)
# Sequence (P42336 whole entry, looked up): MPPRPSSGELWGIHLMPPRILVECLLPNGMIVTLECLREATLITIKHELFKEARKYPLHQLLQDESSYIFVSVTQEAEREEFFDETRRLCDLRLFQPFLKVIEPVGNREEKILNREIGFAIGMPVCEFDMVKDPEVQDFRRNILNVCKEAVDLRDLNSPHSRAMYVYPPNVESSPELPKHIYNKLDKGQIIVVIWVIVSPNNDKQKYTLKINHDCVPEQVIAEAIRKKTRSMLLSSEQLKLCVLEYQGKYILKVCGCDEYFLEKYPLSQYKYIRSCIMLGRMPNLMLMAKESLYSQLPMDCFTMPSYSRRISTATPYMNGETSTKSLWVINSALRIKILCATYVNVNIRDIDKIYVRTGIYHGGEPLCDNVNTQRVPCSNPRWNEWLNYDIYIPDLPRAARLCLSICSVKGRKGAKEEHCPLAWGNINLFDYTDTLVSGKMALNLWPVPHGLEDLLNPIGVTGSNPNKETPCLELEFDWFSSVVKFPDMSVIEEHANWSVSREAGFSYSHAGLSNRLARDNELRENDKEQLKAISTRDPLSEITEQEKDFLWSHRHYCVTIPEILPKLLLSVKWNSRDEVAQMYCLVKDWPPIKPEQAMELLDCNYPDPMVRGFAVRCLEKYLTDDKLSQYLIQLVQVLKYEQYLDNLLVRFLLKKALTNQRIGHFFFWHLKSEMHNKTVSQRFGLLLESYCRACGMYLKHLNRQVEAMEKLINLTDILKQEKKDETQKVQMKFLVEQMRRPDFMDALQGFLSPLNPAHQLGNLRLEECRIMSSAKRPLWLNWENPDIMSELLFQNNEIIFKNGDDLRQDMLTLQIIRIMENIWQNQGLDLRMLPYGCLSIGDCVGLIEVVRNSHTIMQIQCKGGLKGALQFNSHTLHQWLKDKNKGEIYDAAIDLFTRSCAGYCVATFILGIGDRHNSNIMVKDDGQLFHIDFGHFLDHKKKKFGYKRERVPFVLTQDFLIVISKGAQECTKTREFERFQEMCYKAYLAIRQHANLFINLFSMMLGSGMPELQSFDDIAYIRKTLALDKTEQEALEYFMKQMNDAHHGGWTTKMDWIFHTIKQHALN
# Assay: Assessment of Growth Inhibition of U937 Cells
# Conditions: not given
row,SMILES,IC50 [nM]
1,NCCN1C(=O)c2ccc(Cc3ccccc3)cc2C1=O,> 30000
2,NCCN1C(=O)SC(CCCc2ccccc2)C1=O (stereo not drawn),> 30000
3,O=C(O)N1C(=O)SC(=CCCc2ccccc2)C1=O,> 30000
4,CCCC=C1SC(=O)N(CCN)C1=O,> 30000
5,NCCN1C(=O)SC(=CCCc2ccc([N+](=O)[O-])cc2)C1=O,> 30000
6,NCCN1C(=O)SC(=CCCc2cccnc2)C1=O,> 30000
7,O=C1SC(=CCCc2ccccc2)C(=O)N1CN1CCOCC1,> 30000

# The next lines start with the values.
row,IC50 [nM],SMILES
1,> 30000,CS(=O)(=O)Nc1ccc(CCC=C2SC(=O)N(CCN)C2=O)cc1
2,> 30000,NCCN1C(=O)SC(=CCCc2ccc(S(N)(=O)=O)cc2)C1=O

# Target: EGFR (human) (UniProt P00533)
# Sequence (P00533 whole entry, looked up): as the sequence (P00533 whole entry, looked up) above
# Assay: not given
# Conditions: not given
row,IC50 [nM],SMILES
1,≤ 1000,COc1cc2ncnc(NS(=O)(=O)c3ccc(Br)cc3)c2cc1OC
2,≤ 1000,COc1cc2ncnc(NS(=O)(=O)c3ccccc3C#N)c2cc1OC
3,≤ 1000,COc1cc2ncnc(NS(=O)(=O)c3ccc(Cl)cc3)c2cc1OC
4,≤ 1000,COc1cc2ncnc(NS(=O)(=O)c3ccccc3I)c2cc1OC
5,≤ 1000,COc1cc2ncnc(NS(=O)(=O)c3ccccc3Cl)c2cc1OC
6,≤ 1000,COc1ccc(S(=O)(=O)Nc2ncnc3cc(OC)c(OC)cc23)cc1
7,≤ 1000,COc1cc2ncnc(NS(=O)(=O)c3ccccc3Br)c2cc1OC
8,≤ 1000,COc1cc2ncnc(NS(=O)(=O)c3ccc(C)cc3)c2cc1OC
9,≤ 1000,COc1cc2ncnc(NS(=O)(=O)c3cccc(Cl)c3)c2cc1OC

# Target: PIK3CD (Human) (UniProt O00329)
# Assay: Enzyme Assay
# Conditions: not given
row,IC50 [nM],SMILES
1,186,Oc1cccc(-c2nc(N3CCOCC3)nc3cccnc23)c1
2,35,Cn1c(=O)n(-c2ccc(C(C)(C)C#N)cc2)c2c3cc(C#Cc4cccnc4)ccc3ncc21
3,836,O=C(Nc1cccc(CO)c1)Nc1cccc(-c2nc(N3CCOCC3)c3ncccc3n2)c1

# Target: PIK3CA (human) (UniProt P42336)
# Assay: Enzyme Assay
# Conditions: not given
row,IC50 [nM],SMILES
1,71,Cn1c(=O)n(-c2ccc(C(C)(C)C#N)cc2)c2c3cc(C#Cc4cccnc4)ccc3ncc21
2,5800,O=C(Nc1cccc(CO)c1)Nc1cccc(-c2nc(N3CCOCC3)c3ncccc3n2)c1

# Target: CDK2 (human) (UniProt P24941)
# Assay: Enzyme Assay
# Conditions: not given
row,IC50 [nM],SMILES
1,2000,O=C1NCCc2c1[nH]c1ccc(Br)cc21

# Target: PIK3CG (human) (UniProt P48736)
# Assay: Enzyme Assay
# Conditions: not given
SMILES,IC50 [nM],Kd [nM],Ki [nM]
Cn1c(=O)n(-c2ccc(C(C)(C)C#N)cc2)c2c3cc(C#Cc4cccnc4)ccc3ncc21,350,,
CC(C)CCN1c2nc(Nc3cc(F)c(O)c(F)c3)ncc2N(C)C(=O)[C@H]1C,,48,
COc1ncc(-c2ccc3nccc(-c4ccnnc4)c3c2)cc1NS(=O)(=O)c1ccc(F)cc1F,,,0.06
Nc1nc2cc(-c3nn(C4CCOCC4)c4ncnc(N)c34)ccc2o1,< 100,,

# The next lines start with results.
IC50 [nM],Kd [nM],SMILES,Ki [nM]
1060,,Oc1cccc(-c2nc(N3CCOCC3)nc3cccnc23)c1,
22000,,O=C(Nc1cccc(CO)c1)Nc1cccc(-c2nc(N3CCOCC3)c3ncccc3n2)c1,

# Target: CDK2 (UniProt P24941)
# Assay: Enzyme Assay
# Conditions: not given
row,IC50 [nM],SMILES
1,3,NS(=O)(=O)c1ccc(Nc2nccc(-c3cnc4ccccn34)n2)cc1
